Assay results from PubChem BioAssay AID1963870 (Molecular Pharmacology Branch, DTP, NCI, 2024).

Tested on: 292921-168-R-J2-PDC KRAS tumor spheroid viability
Experiment: Anticancer human tumor 292921-168-R-J2-PDC patient-derived pancreatic carcinoma cell line growth inhibition [KRAS2]
Details: spheroids with HUVEC and MSC; for IC50: curve of first compound; for viability, T/C: stronger effect = lower value; active = viability on the fitted dose curve at most 10% of control; inactive = the rest
Outline: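 KRAS-mutant tumor cells were grown as spheroids with HUVEC endothelial cells and human MSCs as stroma. Targeted agents were tested alone and with KRAS pathway inhibitors. Doses started at or near clinical Cmax, or 10 microM, descending half-log.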

[1] = second compound 0.1 µM, first compound 0.01 µM
[2] = second compound 0.1 µM, first compound 0.0316 µM
[3] = second compound 0.1 µM, first compound 0.1 µM
[4] = second compound 0.1 µM, first compound 0.316 µM
[5] = second compound 0.1 µM, first compound 1 µM
[6] = second compound 0.1 µM, first compound 3.16 µM
[7] = second compound 0.316 µM, first compound 0.01 µM
[8] = second compound 0.316 µM, first compound 0.0316 µM
[9] = second compound 0.316 µM, first compound 0.1 µM
[10] = second compound 0.316 µM, first compound 0.316 µM
[11] = second compound 0.316 µM, first compound 1 µM
[12] = second compound 0.316 µM, first compound 3.16 µM
[13] = second compound 1 µM, first compound 0.01 µM
[14] = second compound 1 µM, first compound 0.0316 µM
[15] = second compound 1 µM, first compound 0.1 µM
[16] = second compound 1 µM, first compound 0.316 µM
[17] = second compound 1 µM, first compound 1 µM
[18] = second compound 1 µM, first compound 3.16 µM
[19] = second compound 3.16 µM, first compound 0.01 µM
[20] = second compound 3.16 µM, first compound 0.0316 µM
[21] = second compound 3.16 µM, first compound 0.1 µM
[22] = second compound 3.16 µM, first compound 0.316 µM
[23] = second compound 3.16 µM, first compound 1 µM
[24] = second compound 3.16 µM, first compound 3.16 µM
[25] = second compound 10 µM, first compound 0.01 µM
[26] = second compound 10 µM, first compound 0.0316 µM
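Also: drug exposure lasted seven days after spheroids formed for three days.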
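For viability, T/C in this document: percent of DMSO vehicle control viability which is 100%.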

CC(=O)OC12COC1CC(O)C1(C)C(=O)C(O)C3=C(C)C(OC(=O)C(O)C(NC(=O)OC(C)(C)C)c4ccccc4)CC(O)(C(OC(=O)c4ccccc4)C21)C3(C)C (stereo not given) + CC1OCC2(CCN(c3cnc(Sc4ccnc(N)c4Cl)c(N)n3)CC2)C1N
inactive: viability, T/C [1] 14.3% | viability, T/C [2] 14.6% | viability, T/C [3] 12.2% | viability, T/C [4] 12.4% | viability, T/C [5] 13.6% | viability, T/C [6] 16.8% | viability, T/C [7] 14.6% | viability, T/C [8] 11.3% | viability, T/C [9] 10.6% | viability, T/C [10] 10.7% | viability, T/C [11] 12.2% | viability, T/C [12] 13.9% | viability, T/C [13] 16.9% | viability, T/C [14] 17.1% | viability, T/C [15] 13.4% | viability, T/C [16] 13.9% | viability, T/C [17] 14.2% | viability, T/C [18] 22.1% | viability, T/C [19] 13.1% | viability, T/C [20] 11.6% | viability, T/C [21] 10.9% | viability, T/C [22] 10.4% | viability, T/C [23] 13.2% | viability, T/C [24] 13.8% | viability, T/C [25] 13.7% | viability, T/C [26] 11.8% | viability, T/C (second compound 10 µM, first compound 0.1 µM) 11.8% | viability, T/C (second compound 10 µM, first compound 0.316 µM) 11% | viability, T/C (second compound 10 µM, first compound 1 µM) 13.4% | viability, T/C (second compound 10 µM, first compound 3.16 µM) 13.7%
< 10 nM: IC50 (second compound 0.1 µM) | IC50 (second compound 0.316 µM) | IC50 (second compound 1 µM) | IC50 (second compound 3.16 µM) | IC50 (second compound 10 µM)

CC(=O)Nc1cccc(-n2c(=O)n(C3CC3)c(=O)c3c(Nc4ccc(I)cc4F)n(C)c(=O)c(C)c32)c1 + CC1OCC2(CCN(c3cnc(Sc4ccnc(N)c4Cl)c(N)n3)CC2)C1N
active: viability, T/C [2] 8.15% | viability, T/C [7] 9.03% | viability, T/C [8] 7.3% | viability, T/C (second compound 1 µM, first compound 0.00316 µM) 9.44% | viability, T/C [13] 7.15% | viability, T/C [14] 6.35% | viability, T/C (second compound 3.16 µM, first compound 0.00316 µM) 8.12% | viability, T/C [19] 7.15% | viability, T/C [20] 5.35% | viability, T/C (second compound 10 µM, first compound 0.001 µM) 9.59% | viability, T/C (second compound 10 µM, first compound 0.00316 µM) 7.02% | viability, T/C [25] 5.62% | viability, T/C [26] 4.49%
< 0.1 nM: IC50 (second compound 0.1 µM) | IC50 (second compound 0.316 µM) | IC50 (second compound 1 µM) | IC50 (second compound 3.16 µM) | IC50 (second compound 10 µM)
inactive: viability, T/C (second compound 0.1 µM, first compound 0.0001 µM) 48.8% | viability, T/C (second compound 0.1 µM, first compound 0.000316 µM) 28.9% | viability, T/C (second compound 0.1 µM, first compound 0.001 µM) 18.2% | viability, T/C (second compound 0.1 µM, first compound 0.00316 µM) 14.6% | viability, T/C [1] 10.5% | viability, T/C (second compound 0.316 µM, first compound 0.0001 µM) 35.4% | viability, T/C (second compound 0.316 µM, first compound 0.000316 µM) 27.8% | viability, T/C (second compound 0.316 µM, first compound 0.001 µM) 15.6% | viability, T/C (second compound 0.316 µM, first compound 0.00316 µM) 11.9% | viability, T/C (second compound 1 µM, first compound 0.0001 µM) 30.1% | viability, T/C (second compound 1 µM, first compound 0.000316 µM) 17.7% | viability, T/C (second compound 1 µM, first compound 0.001 µM) 13.1% | viability, T/C (second compound 3.16 µM, first compound 0.0001 µM) 22.9% | viability, T/C (second compound 3.16 µM, first compound 0.000316 µM) 15.7% | viability, T/C (second compound 3.16 µM, first compound 0.001 µM) 11.9% | viability, T/C (second compound 10 µM, first compound 0.0001 µM) 18.3% | viability, T/C (second compound 10 µM, first compound 0.000316 µM) 14.1%

CC(=O)OC12COC1CC(O)C1(C)C(=O)C(O)C3=C(C)C(OC(=O)C(O)C(NC(=O)OC(C)(C)C)c4ccccc4)CC(O)(C(OC(=O)c4ccccc4)C21)C3(C)C (stereo not given) + C=CC(=O)N1CCN(c2nc(OCC3CCCN3C)nc3c2CCN(c2cccc4cccc(C)c24)C3)CC1CC#N
inactive: viability, T/C (second compound 0.0316 µM, first compound 0.01 µM) 12.8% | viability, T/C (second compound 0.0316 µM, first compound 0.0316 µM) 14.4% | viability, T/C (second compound 0.0316 µM, first compound 0.1 µM) 10.5% | viability, T/C (second compound 0.0316 µM, first compound 0.316 µM) 11.3% | viability, T/C (second compound 0.0316 µM, first compound 1 µM) 13.3% | viability, T/C (second compound 0.0316 µM, first compound 3.16 µM) 17.1% | viability, T/C [1] 13.8% | viability, T/C [2] 12% | viability, T/C [3] 9.84% | viability, T/C [4] 9.08% | viability, T/C [5] 12.5% | viability, T/C [6] 14.9% | viability, T/C [7] 11.8% | viability, T/C [8] 9.96% | viability, T/C [9] 8.56% | viability, T/C [10] 9.75% | viability, T/C [11] 15.3% | viability, T/C [12] 14.3% | viability, T/C [19] 15.1% | viability, T/C [20] 13.7% | viability, T/C [21] 11.1% | viability, T/C [22] 11.6% | viability, T/C [23] 14% | viability, T/C [24] 18.2%
active: viability, T/C [13] 8.08% | viability, T/C [14] 6.89% | viability, T/C [15] 6.48% | viability, T/C [16] 7.06% | viability, T/C [17] 6.74% | viability, T/C [18] 7.91%
< 10 nM: IC50 (second compound 0.0316 µM) | IC50 (second compound 0.1 µM) | IC50 (second compound 0.316 µM) | IC50 (second compound 1 µM) | IC50 (second compound 3.16 µM)
